Columns and labels:
γH2AX [1] = experiment: γH2AX western blotting in HCT116 cells; format: cell-based, human; conditions: HCT116, IC50 of compound, versus control cells
Text: (§1) DNA damage is a major reason for inhibiting proliferation and inducing cytotoxicity in cancer cells as well as the main downstream cascade for the Topo-I, Top-II, and tubulin polymerisation inhibition. The phosphorylation of the histone H2AX always occurs after DNA damage forming double-stranded breaks (DSBs). Therefore, we tested the capability of the potent prepared compounds to trigger DNA double strand breaks through detection of the phosphorylation of γH2AX using two different techniques, Immunofluorescence, and western blotting.
(§2) Western blotting analysis for HCT116 cells was performed according to the reported procedure in the literature[77–79] to determine the effects of CP hybrids; 4a, 4b, 4e, 4i, and 4j on the expression of polymerised tubulin, γH2AX, p-ATR, p-CHK1, and p-Cdc25C by using the appropriate antibody. See Supplementary Appendix A.

Human topoisomerase I = biological target: T1, Human topoisomerase I (Homo sapiens, UniProt P11387); experiment: DNA relaxation assay (gel electrophoresis); format: biochemical; conditions: compounds at their IC50 values
T1 construct: purchased Topogen Inc., USA TG-1015
T1 sequence (P11387 1-765): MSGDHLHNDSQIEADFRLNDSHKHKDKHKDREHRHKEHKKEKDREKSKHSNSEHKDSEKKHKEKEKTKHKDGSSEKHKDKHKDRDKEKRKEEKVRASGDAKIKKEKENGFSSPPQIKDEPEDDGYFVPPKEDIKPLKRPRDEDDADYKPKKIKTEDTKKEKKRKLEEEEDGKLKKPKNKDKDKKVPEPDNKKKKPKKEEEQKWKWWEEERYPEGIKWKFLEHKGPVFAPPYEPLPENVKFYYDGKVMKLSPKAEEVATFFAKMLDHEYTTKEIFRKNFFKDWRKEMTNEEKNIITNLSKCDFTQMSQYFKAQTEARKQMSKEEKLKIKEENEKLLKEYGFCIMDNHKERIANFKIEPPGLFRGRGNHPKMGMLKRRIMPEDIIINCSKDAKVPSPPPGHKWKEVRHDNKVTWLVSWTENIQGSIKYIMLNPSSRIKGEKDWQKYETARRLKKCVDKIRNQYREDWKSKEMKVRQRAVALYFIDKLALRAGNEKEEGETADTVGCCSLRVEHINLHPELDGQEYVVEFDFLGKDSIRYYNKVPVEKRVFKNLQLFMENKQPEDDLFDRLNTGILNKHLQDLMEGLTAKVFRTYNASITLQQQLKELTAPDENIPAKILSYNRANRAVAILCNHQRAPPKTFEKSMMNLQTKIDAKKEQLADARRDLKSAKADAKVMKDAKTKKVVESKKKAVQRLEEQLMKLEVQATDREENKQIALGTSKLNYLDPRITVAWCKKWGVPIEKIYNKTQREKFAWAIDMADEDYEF
Method: Based on our design, we hypothesised that the new CP hybrids 4a-j could act as multi-target ligands that can block the catalytic activity of topoisomerases I (Topo-I), topoisomerases (Topo-II), and inhibit tubulin polymerisation as possible targets for the anti-proliferative activity. First, the Topo-I activity was tested by the DNA relaxation assay. The supercoiled plasmid has been utilised as a substrate in the relaxation assay to study the inhibition of DNA Topo-I activity. […] Two different assays were used to examine the inhibitory activity of IC50 of the CP hybrids against Human topoisomerase I. Firstly; Gel electrophoresis-based assay (DNA relaxation assay) was performed following the manufacturer's protocol (TG-1015, Topogen Inc., USA). Secondly, the inhibitory activity of compounds 4a, 4b, 4e, 4i, 4j, and camptothecin to human topoisomerase I was analysed by Human DNA Topoisomerase I Assay Kit (ProFoldin, Hudson, MA, USA) with recombinant human DNA topoisomerase I (Sigma-Aldrich) according to the manufacturer’s protocol.

ATR/CHK1/Cdc25C pathway = experiment: Western blot of ATR-Chk1-Cdc25C cascade in HCT116 cells; format: cell-based, human
Method: To clarify the molecular mechanism responsible for inducing G2/M phase arrest in HCT116 following the treatment with the synthesised compounds, the signalling in the checkpoint pathway that regulates the G2/M transition was investigated. The mammalian cells respond to the DNA damage through 2 different kinase-signalling cascades (ATR-Chk1 and ATM-Chk2). First, the effect of the synthesised compounds on ATM and ATR phosphorylation was tested. […] Then, the phosphorylation of downstream effectors of ATM/ATR, phospho-Chk1-S269, and phospho-Chk2-T68 kinases was explored. […] It is well known that in vitro activation of Chk1 phosphorylates Cdc25C on serine-216. Therefore, the impact of the synthesised compounds on the Cdc25C phosphorylation at Ser-216 was investigated.
as §2

γH2AX [2] = experiment: γH2AX immunofluorescence in HCT116 cells; format: cell-based, human; conditions: HCT116, IC50 of compound
Text: as §1
HCT116 cells were cultured and treated with the IC50 of the potent compounds (4a, 4b, 4e, 4i, and 4j) or DMSO (control), fixed, permeabilized, and they were incubated with either γH2AX or α-tubulin antibody as the reported procedure in the literature. Confocal images were captured using a Confocal Microscope with a 63X objective. All images were processed using ImageJ software. See Supplementary Appendix A.

polymerised tubulin = experiment: Western blot of polymerised tubulin in HCT116 cells; format: cell-based, human; conditions: HCT116, IC50 values of compounds
Method: The process of tubulin polymerisation in the cells is important for the completion of mitosis and is targeted for cancer treatment. It has been reported that the suppression of tubulin polymerisation will arrest the cells at the G2/M and it eventually leads to cell death. To test the tubulin-disruptive effect of the CP hybrids, HCT116 cells were analysed by immunocytochemistry. HCT116 cells were incubated for 36 h with IC50 of the CP hybrids (4a, 4b, 4e, 4i, and 4j), nocodazole (a well-known tubulin polymerisation inhibitor, as a positive control), DMSO or Paclitaxel (a well-known tubulin polymerisation inducer, as a negative control), and tubulin was visualised by immunofluorescence microscopy. An antibody for α-tubulin was used. […] Moreover, a Western blot was performed to verify the tubulin polymerisation inhibition ability of the synthesised compounds (Figure 8(B)). The level of polymerised tubulin was decreased in HCT116 cells treated with IC50 values of CP hybrids 4a, 4b, 4e, 4i, 4j, or nocodazole.
as §2

Topo IIα = biological target: T2, Topo IIα (Homo sapiens, UniProt P11388); experiment: Human Topoisomerase II assay kit (TG1001); format: biochemical; conditions: 10 µM
T2 construct: purchased Topogen Inc. TG1001
T2 sequence (P11388 whole entry): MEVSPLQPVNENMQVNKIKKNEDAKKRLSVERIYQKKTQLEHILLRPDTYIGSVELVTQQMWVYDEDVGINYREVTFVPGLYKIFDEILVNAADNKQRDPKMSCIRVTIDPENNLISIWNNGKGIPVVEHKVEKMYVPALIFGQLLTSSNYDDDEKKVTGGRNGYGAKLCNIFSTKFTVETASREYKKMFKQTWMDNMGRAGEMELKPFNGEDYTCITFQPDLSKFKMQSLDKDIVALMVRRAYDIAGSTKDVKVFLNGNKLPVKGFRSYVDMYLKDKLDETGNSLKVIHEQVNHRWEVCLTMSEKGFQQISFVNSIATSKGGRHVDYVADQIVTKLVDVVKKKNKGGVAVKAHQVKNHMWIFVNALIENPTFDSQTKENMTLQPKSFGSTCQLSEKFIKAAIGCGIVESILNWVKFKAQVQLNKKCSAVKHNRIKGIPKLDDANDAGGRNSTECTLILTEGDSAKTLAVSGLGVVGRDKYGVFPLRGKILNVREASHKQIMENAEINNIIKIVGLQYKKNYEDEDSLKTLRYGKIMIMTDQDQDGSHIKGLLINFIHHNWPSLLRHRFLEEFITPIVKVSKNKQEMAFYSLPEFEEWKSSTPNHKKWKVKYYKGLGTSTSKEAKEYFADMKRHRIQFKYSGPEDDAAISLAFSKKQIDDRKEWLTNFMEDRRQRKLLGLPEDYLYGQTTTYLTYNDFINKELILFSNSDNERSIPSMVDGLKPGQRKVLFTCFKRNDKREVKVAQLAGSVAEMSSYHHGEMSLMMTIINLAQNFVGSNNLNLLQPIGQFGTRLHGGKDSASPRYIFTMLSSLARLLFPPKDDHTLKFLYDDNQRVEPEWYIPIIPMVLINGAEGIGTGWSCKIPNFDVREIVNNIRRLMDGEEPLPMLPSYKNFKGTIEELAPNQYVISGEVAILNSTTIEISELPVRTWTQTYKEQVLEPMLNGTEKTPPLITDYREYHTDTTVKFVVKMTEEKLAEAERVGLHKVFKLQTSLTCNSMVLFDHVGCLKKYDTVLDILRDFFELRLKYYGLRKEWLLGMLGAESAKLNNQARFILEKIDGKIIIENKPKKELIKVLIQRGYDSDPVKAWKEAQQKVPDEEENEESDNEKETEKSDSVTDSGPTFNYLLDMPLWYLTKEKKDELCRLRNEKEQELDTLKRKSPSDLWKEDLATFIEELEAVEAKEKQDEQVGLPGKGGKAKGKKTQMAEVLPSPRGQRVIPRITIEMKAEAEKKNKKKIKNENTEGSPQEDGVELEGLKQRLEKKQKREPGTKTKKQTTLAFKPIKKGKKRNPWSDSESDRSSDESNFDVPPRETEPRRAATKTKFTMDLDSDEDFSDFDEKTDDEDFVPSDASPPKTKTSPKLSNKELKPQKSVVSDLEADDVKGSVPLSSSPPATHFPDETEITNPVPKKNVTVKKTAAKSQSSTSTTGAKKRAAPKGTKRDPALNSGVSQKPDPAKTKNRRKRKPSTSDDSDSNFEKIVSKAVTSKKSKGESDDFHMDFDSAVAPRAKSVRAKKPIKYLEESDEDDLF
Method: Second, the inhibitory activity of Topo IIα was evaluated for compounds 4a, 4b, 4e, 4i, and 4j utilising Human Topoisomerase II assay kit (TG1001, Topogen Inc.). […] The above results are compatible with our design of these hybrids as Top-II inhibitors.
The inhibitory activity of the selected ciprofloxacin hybrids on human Top-II was tested using a Human Topoisomerase II assay kit (TG1001, Topogen Inc.). In this assay, 1% agarose gel was used, and the compounds were tested at two different concentrations, 10 and 100 µM. Also, etoposide was used as a positive control in this experiment. The assay was performed according to the manufacturer’s protocol. The image of the electrophoretic gel was captured using an imaging system (iBright-CL1500, Thermo Fisher Scientific).

| Compound | γH2AX protein expression, western blotting (γH2AX [1]) | Topo-I catalytic activity, DNA relaxation (Human topoisomerase I) | expressions of p-ATR, p-CHK1, and p-Cdc25C, Western blot (ATR/CHK1/Cdc25C pathway) | γH2AX foci formation (γH2AX [2]) | level of polymerised tubulin, Western blot (polymerised tubulin) | Topo-II inhibitory activity (Topo IIα) |
| --- | --- | --- | --- | --- | --- | --- |
| COc1ccc(/C=C/C(=O)c2ccc(-n3cc(CN4CCN(c5cc6c(cc5F)c(=O)c(C(=O)O)cn6C5CC5)CC4)nn3)cc2)cc1OC [Compound 4i, (E)-1-cyclopropyl-7-(4-((1-(4-(3–(3,4-dimethoxyphenyl)acryloyl)phenyl)-1H-1,2,3-triazol-4-yl)methyl)piperazin-1-yl)-6-fluoro-4-oxo-1,4-dihydroquinoline-3-carboxylic acid] | increases in the γH2AX protein expression | could inhibit Topo-I catalytic activity | increased | induced γH2AX foci formation | decreased |  |
| O=C(/C=C/c1ccc(F)cc1)c1ccc(-n2cc(CN3CCN(c4cc5c(cc4F)c(=O)c(C(=O)O)cn5C4CC4)CC3)nn2)cc1 [Compound 4e, (E)-1-cyclopropyl-6-fluoro-7–(4-((1–(4-(3-(4-fluorophenyl)acryloyl)phenyl)-1H-1,2,3-triazol-4-yl)methyl)piperazin-1-yl)-4-oxo-1,4-dihydroquinoline-3-carboxylic acid] | increases in the γH2AX protein expression | could inhibit Topo-I catalytic activity | increased | induced γH2AX foci formation | decreased | stronger inhibitory activity than 4b, 4i, and ETO |
| O=C(/C=C/c1cccc(Cl)c1)c1ccc(-n2cc(CN3CCN(c4cc5c(cc4F)c(=O)c(C(=O)O)cn5C4CC4)CC3)nn2)cc1 [Compound 4b, (E)-7-(4-((1–(4-(3-(3-chlorophenyl)acryloyl)phenyl)-1H-1,2,3-triazol-4-yl)methyl)piperazin-1-yl)-1-cyclopropyl-6-fluoro-4-oxo-1,4-dihydroquinoline-3-carboxylic acid] | increases in the γH2AX protein expression | could inhibit Topo-I catalytic activity | increased | induced γH2AX foci formation | decreased |  |
| O=C(/C=C/c1ccccc1)c1ccc(-n2cc(CN3CCN(c4cc5c(cc4F)c(=O)c(C(=O)O)cn5C4CC4)CC3)nn2)cc1 [Compound 4a, (E) 7-(4-((1–(4-Cinnamoylphenyl)-1H-1,2,3-triazol-4-yl)methyl)piperazin-1-yl)-1-cyclopropyl-6-fluoro-4-oxo-1,4-dihydroquinoline-3-carboxylic acid] | increases in the γH2AX protein expression | could inhibit Topo-I catalytic activity | increased | induced γH2AX foci formation | decreased | stronger inhibitory activity than 4b, 4i, and ETO |
| COc1cc(/C=C/C(=O)c2ccc(-n3cc(CN4CCN(c5cc6c(cc5F)c(=O)c(C(=O)O)cn6C5CC5)CC4)nn3)cc2)cc(OC)c1OC [Compound 4j, (E)-1-cyclopropyl-6-fluoro-4-oxo-7–(4-((1–(4-(3-(3,4,5-trimethoxyphenyl)acryloyl)phenyl)-1H-1,2,3-triazol-4-yl)methyl)piperazin-1-yl)-1,4-dihydroquinoline-3-carboxylic acid] | increases in the γH2AX protein expression | could inhibit Topo-I catalytic activity | increased | induced γH2AX foci formation | decreased | stronger inhibitory activity than 4b, 4i, and ETO |

— PMC9116245, “New 1,2,3-triazole linked ciprofloxacin-chalcones induce DNA damage by inhibiting human topoisomerase I& II and tubulin polymerization” (Journal of Enzyme Inhibition and Medicinal Chemistry, 2022)
